The text below walks through data of PMC9582434, “Ryanodine receptor-active non-dioxin-like polychlorinated biphenyls cause neurobehavioral deficits in larval zebrafish” (Frontiers in Toxicology, 2022).

Each structure is given as a SMILES string.

The series relates to larval zebrafish. Kind of series: Teratological and mortality assessment, static exposure 6 hpf to 5 dpf. It is filed as in vivo. The conditions noted are these: 30 µM; by 3 dpf; data not shown. How it is done:
At 4 hpf, embryos were treated with 50 µl of 41 mg/ml protease from Streptomyces griseus (P5147, Sigma-Aldrich, St. Louis, MO, United States) in 25 ml of FW for a maximum of 6 min to remove the chorion ([Truong et al., 2011]). At 5 hpf, embryos were placed in individual wells of 96-well plates filled with 100 µl of EM. At 6 hpf, embryos were exposed to a 2× concentration of the selected PCB congeners or controls that were diluted in 100 μl EM to produce a 1× concentration in a total of 200 µl solution. […] After exposure, plates were covered with Parafilm M (Bemis NA, Neenah, WI, United States) to reduce evaporation and placed in an incubator at 28.5°C with 14 h light (∼300 lux)/10 h dark cycles. Final DMSO concentrations were 0.2% (vol/vol) for all exposures. Fish were statically exposed until 5 dpf.
Exposed fish were examined daily for any gross morphological malformations and mortality using an Olympus Stereo Microscope Model SZ61 (Olympus, Japan) up to ×4.5 magnification. […] Teratological endpoints that were evaluated include yolk sac edema, pericardial edema, somite formation, deformities of the body axis, notochord, craniofacial structures, or caudal fin. Malformations were scored in a binary manner of either present or not present. Fish that were scored as neither malformed nor dead were deemed viable. […]

Compound `Clc1ccc(Cl)c(-c2c(Cl)ccc(Cl)c2Cl)c1` [PCB 95, 2,2',3,5',6-pentachlorobiphenyl] had a loss of viability of approximately 100%.
